The term Km denotes the substrate concentration at which the rate is half of its maximum.

From ChEMBL document CHEMBL2074197, “Molecular and functional characterization of an organic anion transporting polypeptide cloned from human liver” (Gastroenterology, 1995) come the findings set out here.

Data set [1] addresses T1, Solute carrier organic anion transporter family member 1A2 (Homo sapiens, UniProt P46721).
T1 sequence (P46721 whole entry): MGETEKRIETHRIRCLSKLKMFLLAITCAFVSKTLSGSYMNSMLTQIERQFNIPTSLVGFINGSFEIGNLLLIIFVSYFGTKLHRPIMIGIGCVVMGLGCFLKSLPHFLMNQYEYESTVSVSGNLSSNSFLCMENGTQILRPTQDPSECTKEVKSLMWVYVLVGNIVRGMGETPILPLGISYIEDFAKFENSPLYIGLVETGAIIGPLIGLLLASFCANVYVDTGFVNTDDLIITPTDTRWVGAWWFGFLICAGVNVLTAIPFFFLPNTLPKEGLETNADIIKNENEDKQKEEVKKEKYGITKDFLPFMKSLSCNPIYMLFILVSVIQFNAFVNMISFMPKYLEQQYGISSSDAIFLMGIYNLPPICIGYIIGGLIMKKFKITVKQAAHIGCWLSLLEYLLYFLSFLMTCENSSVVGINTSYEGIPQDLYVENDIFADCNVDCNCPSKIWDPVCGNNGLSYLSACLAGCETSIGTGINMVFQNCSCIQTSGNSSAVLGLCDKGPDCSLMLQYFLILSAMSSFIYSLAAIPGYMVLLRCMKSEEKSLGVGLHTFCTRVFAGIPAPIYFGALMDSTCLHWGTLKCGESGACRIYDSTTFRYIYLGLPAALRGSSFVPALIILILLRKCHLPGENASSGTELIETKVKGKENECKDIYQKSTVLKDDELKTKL
The data set is described as follows: TP_TRANSPORTER: inhibition of BSP uptake (BSP: 10 uM, CDCA: 200 uM) in Xenopus laevis oocytes. The settings on record: oocyte. More on the design: scale not given: the % may be the effect or the level left. The data set is classed as functional, cell-based.

The target of data set [2] is T1, Solute carrier organic anion transporter family member 1A2. Kind of data set: TP_TRANSPORTER: inhibition of Taurocholate uptake (Taurochorate: 10 uM, CDCA: 200 uM) in Xenopus laevis oocytes. Type of data set: functional, cell-based. More on the design: scale not given: the % may be the effect or the level left. The settings on record: oocyte.
For data set [3], the target named is T2, Solute carrier organic anion transporter family member 1A2 (OATP1A2) (Homo sapiens, UniProt P46721).
T2 sequence (P46721 whole entry): T1 sequence (P46721 whole entry)
The data set is described as follows: TP_TRANSPORTER: inhibition of Taurocholate uptake (Taurochorate: 10 uM, GC: 200 uM) in Xenopus laevis oocytes. Type of data set: functional, cell-based, Oocyte. More on the design: scale not given: the % may be the effect or the level left. The settings on record: Xenopus laevis oocytes expressing OATP1A2 (SLCO1A2), probe taurocholate, read-out: Activity.

Data set [4] has as its target T1, Solute carrier organic anion transporter family member 1A2. The data set is described as follows: TP_TRANSPORTER: inhibition of BSP uptake (BSP: 10 uM, GC: 100 uM) in Xenopus laevis oocytes. Type of data set: functional, cell-based. As to conditions: oocyte. More on the design: scale not given: the % may be the effect or the level left.
Data set [5] deals with T2, Solute carrier organic anion transporter family member 1A2 (OATP1A2). Kind of data set: TP_TRANSPORTER: inhibition of BSP uptake (BSP: 10 uM, ICG: 100 uM) in Xenopus laevis oocytes. Type of data set: functional, cell-based, Oocyte. The settings on record: Xenopus laevis oocytes expressing OATP1A2 (SLCO1A2), probe BSP (sulfobromophthalein), read-out: Activity. Further details: scale not given: the % may be the effect or the level left.

Data set [6] has the same target. The data set is described as follows: TP_TRANSPORTER: inhibition of Taurocholate uptake (Taurochorate: 10 uM, ICG: 100 uM) in Xenopus laevis oocytes. Type of data set: functional, cell-based, Oocyte. Further details: scale not given: the % may be the effect or the level left. The settings on record: Xenopus laevis oocytes expressing OATP1A2 (SLCO1A2), probe taurocholate, read-out: Activity.

For data set [7] the target is unchanged. Kind of data set: TP_TRANSPORTER: uptake in Xenopus laevis oocytes. The data set is classed as functional, cell-based, Oocyte. As to conditions: Xenopus laevis oocytes expressing OATP1A2 (SLCO1A2).
Data set [8] has the same target. Kind of data set: TP_TRANSPORTER: inhibition of BSP uptake (BSP: 10 uM, TCDC: 100 uM) in Xenopus laevis oocytes. Type of data set: functional, cell-based, Oocyte. Further details: scale not given: the % may be the effect or the level left. The settings on record: Xenopus laevis oocytes expressing OATP1A2 (SLCO1A2), probe BSP (sulfobromophthalein), read-out: Activity.

Data set [9] shares this target. Kind of data set: TP_TRANSPORTER: inhibition of Taurocholate uptake (Taurochorate: 10 uM, TCDC: 100 uM) in Xenopus laevis oocytes. Type of data set: functional, cell-based, Oocyte. Further details: scale not given: the % may be the effect or the level left. As to conditions: Xenopus laevis oocytes expressing OATP1A2 (SLCO1A2), probe taurocholate, read-out: Activity.

For data set [10] the target is unchanged. Kind of data set: TP_TRANSPORTER: inhibition of Taurocholate uptake (Taurochorate: 10 uM, TUDC: 100 uM) in Xenopus laevis oocytes. Type of data set: functional, cell-based, Oocyte. More on the design: scale not given: the % may be the effect or the level left. As to conditions: Xenopus laevis oocytes expressing OATP1A2 (SLCO1A2), probe taurocholate, read-out: Activity.

For data set [11] the target is unchanged. The data set is described as follows: TP_TRANSPORTER: inhibition of BSP uptake (BSP: 10 uM, TUDC: 100 uM) in Xenopus laevis oocytes. The data set is classed as functional, cell-based, Oocyte. Further details: scale not given: the % may be the effect or the level left. As to conditions: Xenopus laevis oocytes expressing OATP1A2 (SLCO1A2), probe BSP (sulfobromophthalein), read-out: Activity.

For data set [12] the target is unchanged. The data set is described as follows: TP_TRANSPORTER: inhibition of BSP uptake (BSP: 10 uM, UDCA: 100 uM) in Xenopus laevis oocytes. Type of data set: functional, cell-based, Oocyte. More on the design: scale not given: the % may be the effect or the level left. The settings on record: Xenopus laevis oocytes expressing OATP1A2 (SLCO1A2), probe BSP (sulfobromophthalein), read-out: Activity.

Data set [13] addresses T1, Solute carrier organic anion transporter family member 1A2. Kind of data set: TP_TRANSPORTER: inhibition of Taurocholate uptake (Taurochorate: 10 uM, UDCA: 200 uM) in Xenopus laevis oocytes. The data set is classed as functional, cell-based. Further details: scale not given: the % may be the effect or the level left. As to conditions: oocyte.

As to `C[C@H](CCC(=O)O)[C@H]1CC[C@H]2[C@@H]3[C@H](O)C[C@@H]4C[C@H](O)CC[C@]4(C)[C@H]3CC[C@]12C` [CHENODIOL], the Activity in data set [1] was 34%; in data set [2], 15%.
Take `C[C@H](CCC(=O)NCC(=O)O)[C@H]1CC[C@H]2[C@@H]3[C@H](O)C[C@@H]4C[C@H](O)CC[C@]4(C)[C@H]3C[C@H](O)[C@]12C` [GLYCOCHOLIC ACID]: the activity at 200 µM in [3] came out at 24%. The Activity in [4] amounted to 81%.
Consider `CC1(C)C(/C=C/C=C/C=C/C=C2\N(CCCCS(=O)(=O)O)c3ccc4ccccc4c3C2(C)C)=[N+](CCCCS(=O)(=O)[O-])c2ccc3ccccc3c21` [INDOCYANINE GREEN], for which the figures for the activity at 100 µM in data set [5] and in data set [6] were 60% and 28%, respectively.
With `O=C1OC(c2ccc(O)c(S(=O)(=O)O)c2)(c2ccc(O)c(S(=O)(=O)O)c2)c2c(Br)c(Br)c(Br)c(Br)c21` [SULFOBROMOPHTHALEIN SODIUM], the Km in data set [7] turned out to be 20 µM.
As to `C[C@H](CCC(=O)NCCS(=O)(=O)O)[C@H]1CC[C@H]2[C@@H]3[C@H](O)C[C@@H]4C[C@H](O)CC[C@]4(C)[C@H]3CC[C@]12C` [TAUROCHENODEOXYCHOLATE], the activity at 100 µM was 17% in data set [8] and 28% in [9].
On to `C[C@H](CCC(=O)NCCS(=O)(=O)O)[C@H]1CC[C@H]2[C@@H]3[C@@H](O)C[C@@H]4C[C@H](O)CC[C@]4(C)[C@H]3CC[C@]12C` [TAURURSODIOL], for which the activity at 100 µM in data set [10] and in [11] was 9% each time. Further, the Km in data set [7] is 19 µM.
`C[C@H](CCC(=O)O)[C@H]1CC[C@H]2[C@@H]3[C@@H](O)C[C@@H]4C[C@H](O)CC[C@]4(C)[C@H]3CC[C@]12C` [URSODIOL]: the activity at 100 µM in data set [12] amounted to 57%. For the same molecule, the Activity in [13] was 14%.
